Measurements: patent publication US7544814B2, “[3.2.0] Heterocyclic compounds and methods of using the same” (Nereus Pharmaceuticals, Inc., priority 2004, dated 2009)
“And” between values parts separate entries of the source, which are not always exact repeats. Equal entries are not always repeated. Where two headings read alike, the source gives them in different places.

Tests used:
[1] = tested on: RPMI 8226; test: Cell growth inhibition (resazurin), RPMI 8226; details: for EC50: Homo sapiens; for cytotoxicity against RPMI 8226, in words: from EC50 values
[2] = target: T1, chymotrypsin-like activity of purified rabbit muscle 20S proteasome (Oryctolagus cuniculus, UniProt G1T4Q9); test: In vitro inhibition of 20S proteasome chymotrypsin-like activity (suc-LLVY-AMC)
T1 sequence (G1T4Q9 1-263): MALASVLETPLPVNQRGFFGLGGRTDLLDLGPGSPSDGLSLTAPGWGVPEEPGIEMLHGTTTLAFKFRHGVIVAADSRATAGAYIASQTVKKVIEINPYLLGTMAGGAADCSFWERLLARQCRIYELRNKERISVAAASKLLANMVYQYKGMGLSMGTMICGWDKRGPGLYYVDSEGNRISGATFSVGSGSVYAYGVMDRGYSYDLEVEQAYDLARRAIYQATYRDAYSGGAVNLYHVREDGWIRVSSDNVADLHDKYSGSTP

[3] = target: T2, trypsin-like activity of purified rabbit muscle 20S proteasome (Oryctolagus cuniculus, UniProt G1SWK8); test: In vitro inhibition of 20S proteasome trypsin-like activity (Boc-LRR-AMC); details: under the conditions tested
T2 sequence (G1SWK8 1-271): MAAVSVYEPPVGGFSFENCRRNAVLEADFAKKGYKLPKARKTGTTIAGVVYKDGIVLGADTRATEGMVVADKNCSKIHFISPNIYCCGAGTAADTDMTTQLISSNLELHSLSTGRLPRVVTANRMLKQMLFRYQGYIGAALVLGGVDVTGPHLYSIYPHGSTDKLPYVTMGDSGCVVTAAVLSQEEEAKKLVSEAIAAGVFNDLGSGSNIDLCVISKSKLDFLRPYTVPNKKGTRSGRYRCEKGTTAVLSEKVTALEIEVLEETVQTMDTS

[4] = target: T3, caspase-like activity of purified rabbit muscle 20S proteasome (Oryctolagus cuniculus, UniProt A0A5F9DQW2); test: In vitro inhibition of 20S proteasome caspase-like activity (Z-LLE-AMC)
T3 sequence (A0A5F9DQW2 1-212): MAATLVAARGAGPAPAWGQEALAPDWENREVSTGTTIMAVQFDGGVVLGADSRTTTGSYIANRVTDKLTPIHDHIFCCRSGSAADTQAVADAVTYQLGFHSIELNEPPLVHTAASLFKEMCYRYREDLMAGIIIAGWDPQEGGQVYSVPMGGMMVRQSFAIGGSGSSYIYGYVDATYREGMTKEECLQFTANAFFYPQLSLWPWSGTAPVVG

[5] = tested on: NF-κB; test: NF-κB-mediated luciferase reporter gene assay, HEK293 NF-κB/Luc cells, TNF-α stimulation; assay type: cell-based, human; details: for EC50: Homo sapiens; for effect on luciferase activity upon TNF-α stimulation, in words: pretreatment of NF-κB/Luc 293 cells
In short: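 Cells seeded at 1.5×10^4/well in phenol-red free DMEM, pretreated 1 h with 8-point half-log compound dilutions (DMSO stocks), then stimulated with TNF-α (10 μl of 50 ng/ml solution) for 6 h. Luciferase read as RLU after 10 min with Steady Lite reagent at room temperature.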

[6] = tested on: U266; test: Cell growth inhibition (resazurin), U266; details: for EC50: 48 hours drug exposure; for cytotoxicity against U266, in words: from EC50 values
[7] = RPMI-8226, read-out: Cytotoxicity RPMI EC50, Table 12
[8] = EC50 Chymotrypsin-like, Table 6, values in nM
[9] = Proteasome Chymotrypsin-like EC50, Table 12
[10] = Proteasome Caspase-like EC50, Table 12
[11] = HEK293, read-out: NF-κB EC50, Table 12

| Compound | EC50 ([1]; RPMI-8226, 48 h, read-out: RPMI 8226 EC50, Table 2, 48 hours drug exposure, mean ± SD where n≥3) [nM] | EC50 [1, 7] [nM] | cytotoxicity against RPMI 8226, in words [1] | EC50 [2, 8] [nM] | EC50 [2, 9] | inhibition of the trypsin-like activity of the 20S proteasome, in words [3] | EC50 ([4]; EC50 Caspase-like, Table 6, values in μM) [µM] | EC50 ([4]; EC50 values, caspase-like activity, range in mixed units, summary of Table 6, range from nM to μM) [µM] | EC50 [4, 10] | EC50 [5, 11] [nM] | effect on luciferase activity upon TNF-α stimulation, in words [5] | EC50 ([6]; Homo sapiens, U-266, 48 h, read-out: U266 EC50, Table 2) [nM] | cytotoxicity against U266, in words [6] | EC50 ([6]; read-out: U266 EC50, Table 2) [nM] | EC50 ([2]; EC50 values, chymotrypsin-like activity, summary of Table 6) [nM] | EC50 ([4]; EC50 Caspase-like, Table 6, values in nM) | EC50 ([4]; EC50 values, caspase-like activity, summary of Table 6) [µM] | EC50 ([5]; HEK293, read-out: EC50, NF-κB-mediated luciferase reporter gene assay, Table 5, values in nM, 1 hr pretreatment, TNF-α 6 hr) [nM] |
| --- | --- | --- | --- | --- | --- | --- | --- | --- | --- | --- | --- | --- | --- | --- | --- | --- | --- | --- |
| C[C@H]1C(=O)N[C@@]2(C(O)[C@@H]3C=CCCC3)C(=O)O[C@@]12C (single isomer, unassigned) [Formula II-20] | 8510 ± 3260 | 8510 ± 3260 | cytotoxic | 7.7 ± 3 | 7.7 ± 3 nM | able to inhibit | 1.4 | 0.956 to 8.7 | 1.42 µM | 849 ± 225 | dose-dependent decrease | 310 | cytotoxic | 442 | – | – | – | – |
| C[C@@]12OC(=O)[C@]1([C@@H](O)[C@@H]1C=CCCC1)NC(=O)[C@@H]2CCBr [Formula II-18] | – | 6.3 | cytotoxic | 2.3 | 2.3 nM and 2 nM | able to inhibit | – | – | 0.286 µM and 0.213 µM | 11 | dose-dependent decrease | – | cytotoxic | – | 2 to 11 | 0.286 µM and 0.213 µM | 0.213 to 0.85 | 9 |
